The record followed here is ChEMBL document CHEMBL5608224, “Novel KRAS Inhibitors for Treating Non-small Cell Lung Cancer” (ACS Med Chem Lett, 2024).

A short description of the assay: Inhibition of recombinant GMPPNP-loaded KRAS-G12C mutant (unknown origin) /recombinant GST-tagged RAF RBD (unknown origin) complex assessed as disruption preincubated with KRAS G12C for 20 mins followed by RAF addition and measured after 20 mins by HTRF assay. Details: species or system Homo sapiens.
As to `C#Cc1cccc2cccc(-c3ccc4c(N(C)[C@@H]5CCN(C(=O)/C(F)=C/c6ccccn6)C5)nc(OC[C@@]56CCCN5C[C@H](F)C6)nc4c3F)c12`, the IC50 was 0.02 µM.

As to `CN1CCC[C@H]1COc1nc(N2CCN(C(=O)/C(F)=C/c3nccs3)[C@@H](CC#N)C2)c2ccc(-c3cc(O)cc4ccccc34)c(F)c2n1`, the IC50 turned out to be 0.016 µM.

For the compound `N#CC[C@H]1CN(c2nc(OC[C@@]34CCCN3C[C@H](F)C4)nc3c(F)c(-c4cc(O)cc5ccccc45)ccc23)CCN1C(=O)/C(F)=C/c1ncccn1`, the IC50 was found to be 0.011 µM.

In the case of `CN1CCC[C@H]1COc1nc(N2CCN(C(=O)/C(F)=C/c3ncccn3)[C@@H](CC#N)C2)c2ccc(-c3cc(O)cc4ccccc34)c(F)c2n1`, the IC50 was determined as 0.01 µM.

For `C#Cc1c(F)ccc2cc(O)cc(-c3ccc4c(N5CCN(C(=O)/C(F)=C/c6ccccn6)CC5)nc(OC[C@@]56CCCN(C)[C@]5(C)CCC6)nc4c3F)c12`, the IC50 amounted to 0.0064 µM.

Consider `C#Cc1c(F)ccc2cc(O)cc(-c3ccc4c(N5CCN(C(=O)/C(F)=C/c6nccs6)CC5)nc(OC[C@@]56CCCN5C[C@H](F)C6)nc4c3F)c12`, for which the IC50 stood at 0.002 µM.
